Results taken from PubChem BioAssay AID179 (DTP/NCI, 2004).
“And” between values parts separate entries of the source, which are not always exact repeats. Equal values may be shown once. The source made the active and inactive calls.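 The calls were made as follows: active = compounds giving half or more protection of infected cells from virus-caused growth loss, again on retest; inactive = the rest.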 Where a SMILES comes first, the peptide text is derived from it. The star is where a group is joined. Cbz = O=C(OCc1ccccc1)*

Tested on: CEM cells HIV-1 protection, formazan growth assay
Assay: NCI AIDS Antiviral Assay
Conditions: for IC50: measured here: growth of uninfected CEM cells
Method in brief: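 Screen of anti-HIV-1 activity in human CEM cells using a formazan-based growth measurement at five drug concentrations. Hits with 50% or greater protection were repeated, and confirmation required reproducible complete protection.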

| SMILES | EC50 | IC50 | outcome |
| --- | --- | --- | --- |
| N#CCCCCC12C3C(=O)N(c4ccccc4)C(=O)C3ON1O[C@@H]1C(=O)N(c3ccccc3)C(=O)[C@@H]12 (some centres undefined) | > 200 µM | > 200 µM |  |
| CCCCCC(CO)C(O)(C(F)(F)F)C(F)(F)F (centres undefined) | > 200 µM | 70.8 µM |  |
| Nc1nc(Cl)cc(NCC2(O)CCC2)n1 | > 200 µM | > 200 µM |  |
| CC(C)(C)OC(=O)NCC(=O)NCC(=O)NCC(=O)NCC(=O)O (HELM PEPTIDE1{[CC(C)(C)OC(=O)[*:2]].G.G.G.G}$$$$V2.0) | > 724 µM | > 724 µM |  |
| COC(=O)c1c(C(=O)OC)c(C(c2ccccc2)c2ccccc2)n(-c2ccccc2)c1Cl | > 200 µM | 64.6 µM |  |
| CS(=O)(=O)Nc1ccc2oc(=O)c3ccccc3c2c1 | > 200 µM | 24 µM |  |
| COc1cc(OC)c2ccc(=O)oc2c1 | > 91.2 µM | > 91.2 µM |  |
| C[C@H](NS(=O)(=O)c1ccc(NC(=O)c2ccccc2)cc1)C(=O)O |  |  | inactive |
| O=c1[nH]c(=S)[nH]c2c1sc(=S)n2-c1ccccc1 | > 89.1 µM | > 89.1 µM |  |
| O=C1OC2C(O)OC3COC(=O)c4cc(O)c(O)c(O)c4-c4c(O)c(O)c5oc(=O)c6c(c(O)c(O)c7oc(=O)c4c5c76)-c4c(cc(O)c(O)c4O)C(=O)OC3C2OC(=O)c2cc(O)c(O)c(O)c2-c2c1cc(O)c(O)c2O (centres undefined) | 0.724 µM | 21.4 µM |  |
| Cc1ncc(-c2nnnn2-c2ccccc2)c(C(=O)O)n1 | > 200 µM | > 200 µM |  |
| CC1OC(CC(=O)O)Cc2c1c(O)c1c(O)cc(-c3cc(=O)c4c(=O)c5c(c(=O)c=4c3=O)CC(CC(=O)O)OC5C)c(O)c1c2O (centres undefined) |  |  | inactive |
| O=C(O)c1cccc(Nc2c(C(=O)O)cccc2[N+](=O)[O-])c1 | > 200 µM | 6.31 µM |  |
| Cc1c2cc(Cl)ccc2n2c(=O)c3ccccc3[nH]c(=O)c12 | > 15.8 µM | > 15.8 µM |  |
| OCC1C(OCc2ccccc2)C(OCc2ccccc2)C(OCc2ccccc2)CN1Cc1ccccc1 (centres undefined) |  |  | inactive |
| O=C1C/C(=C/c2ccc(/C=C3/CC(=O)N(c4cccc(Br)c4)C3=O)cc2)C(=O)N1c1cccc(Br)c1 | > 11.2 µM | > 11.2 µM |  |
| Cc1nnc(N)s/c1=N/O | > 200 µM | > 200 µM |  |
| CC(=O)OCC1OC(n2c(-c3ccc(C)cc3)cc(-c3ccco3)c(C#N)c2=O)C(OC(C)=O)C(OC(C)=O)C1OC(C)=O (centres undefined) | > 16.2 µM | > 16.2 µM |  |
| Cc1ccsc1/C=N/Nc1nc2ccccc2s1 | > 200 µM | 105 µM |  |
| COc1cc([C@H]2CC(=O)C[C@H](c3cc(OC)c(OC)c(OC)c3)C23C(=O)c2ccccc2C3=O)cc(OC)c1OC | > 200 µM | > 200 µM |  |
| Clc1ccccc1C(SCc1ccccc1)SCc1ccccc1 | > 200 µM | 195 µM |  |

| SMILES | EC50 | IC50 | outcome |
| --- | --- | --- | --- |
| O=C(c1ccccc1)c1ccc(C(=O)c2ccccc2)cc1 | > 5.01 µM | > 5.01 µM |  |
| OC12c3ccccc3C1CCCCCCCCCC21OCCCO1 (centres undefined) | > 200 µM | > 200 µM |  |
| COC(=O)C1CCC(=O)N1C(c1ccc2c(c1)OCO2)c1cc(OC)c(OC)c(OC)c1 (centres undefined) | > 200 µM | > 200 µM |  |
| COC(=O)c1c(C(=O)OC)c2c(-c3ccccc3)cc3cccc1n32 | > 8.13 µM | > 8.13 µM |  |
| O=C1CC=CN1CCn1c(=S)[nH]c2ccccc21 | > 501 µM | > 501 µM |  |
| Cc1cn(COCC(O)C[N+](=O)[O-])c(=O)[nH]c1=O (centres undefined) | > 200 µM | > 200 µM |  |
| COc1ccc(CCN2C(=O)c3cccc4c(Sc5ccccc5[N+](=O)[O-])ccc(c34)C2=O)cc1OC | > 200 µM | > 200 µM |  |
| Cc1ccc2c(c1C)C(=O)/C(=C/c1ccccc1C(=O)O)C2 | 38 µM | 93.3 µM |  |
| CC(=O)Nc1ccc(SSc2ccc(NC(C)=O)c3cccnc23)c2ncccc12 | > 200 µM | 2.34 µM |  |
| COc1cc(C2CC(=O)c3ccccc3O2)ccc1O (centres undefined) | > 200 µM | 11.7 µM |  |
| CCOC(=O)C1CC(O)C(=O)N1C (centres undefined) |  |  | inactive |
| Cc1cc(NS(=O)(=O)c2ccc(Nc3c4ccccc4nc4c(C(=O)NCCN(C)C)cccc34)cc2)no1 |  |  | inactive |
| O=C(NCCCCN(CCCNC(=O)C(F)(F)F)Cc1ccccc1)C(F)(F)F | > 200 µM | 97.7 µM |  |
| CCOC(CCCN1CCC2(CC1)C(=O)N(C)CN2c1ccccc1)(OCC)c1ccc(F)cc1 | > 200 µM | 15.1 µM |  |
| O=C1CCC[C@]2(CCCC(=O)N2)C1 |  |  | inactive |
| COC(=O)C1CCC(=O)N1C(c1ccc2c(c1)OCO2)c1ccc2c(c1)OCO2 (centres undefined) | > 200 µM | 148 µM |  |
| COc1c(Br)cc(Br)c(OC)c1-c1ccc[nH]1 | > 38 µM | > 38 µM |  |
| O=c1c(C(c2ccc([N+](=O)[O-])cc2)c2c(O)c3ccccc3n(-c3ccccc3)c2=O)c(O)c2ccccc2n1-c1ccccc1 | > 11.7 µM | > 11.7 µM |  |
| COc1ccc(/C(Cl)=C(\C=O)c2ccc(OC)c(OC)c2)cc1OC | > 251 µM | > 251 µM |  |
| O=P1(O)c2ccccc2Oc2ccccc21 | > 200 µM | > 200 µM |  |
| COC(=O)c1nc(-c2ccc(Cl)c(Cl)c2)nc2ccc(Cl)cc12 |  |  | inactive |

| SMILES | EC50 | IC50 | outcome |
| --- | --- | --- | --- |
| CCOc1cc(/C=C2\N=C(c3ccccc3)OC2=O)ccc1O | > 23.4 µM | > 23.4 µM |  |
| CCOC(=N)CNC(=O)c1ccccc1 | > 200 µM | > 200 µM |  |
| O=C(O)C1CCC(c2ccc(Cl)cc2)N1 (centres undefined) | > 200 µM | > 200 µM |  |
| N#Cc1n[nH]n(-c2ccccc2)c1=O | > 200 µM | > 200 µM |  |
| O=C(O)c1c(O)ccc(N=Nc2ccc(/C=C/c3ccc(N=Nc4ccc(O)c(C(=O)O)c4O)cc3S(=O)(=O)O)c(S(=O)(=O)O)c2)c1O | > 14.5 µM | > 14.5 µM |  |
| O=C1NC(=Nc2ccccc2Cl)SC1C(=O)Nc1ccc([N+](=O)[O-])cc1[N+](=O)[O-] (centres undefined) | > 115 µM | > 115 µM |  |
| O=C1/C(=C\c2ccc(Br)cc2)CCCc2ccccc21 | > 200 µM | 22.4 µM |  |
| CC(=O)Nc1ccc(S(=O)(=O)NCCSSCCNS(=O)(=O)c2ccc(NC(C)=O)cc2)cc1 | > 200 µM | > 200 µM |  |
| C[C@]12C[C@@H](c3ccccc3)Nc3ccccc3N1C(c1ccccc1)=NO2 | > 200 µM | 30.9 µM |  |
| CCCCCCC(=O)C/C(CCC(=O)N(Cc1ccccc1)Cc1ccccc1)=N\Nc1ccc([N+](=O)[O-])cc1[N+](=O)[O-] | > 12.3 µM | > 12.3 µM |  |
| NC(=O)Nn1c2c(c3c1CCCC3)CCCC2 |  |  | inactive |
| CC(=O)C(CN1CCOCC1)C(c1ccccc1)c1c(O)c2ccccc2oc1=O (centres undefined) | > 89.1 µM | 55 µM |  |
| Cc1ccc(S(=O)(=O)SCC(=O)c2ccc([N+](=O)[O-])cc2)cc1 |  | 102 µM | inactive |
| CC(=O)Nc1ccc(-c2nnc(SCC(=O)Nc3cccc([N+](=O)[O-])c3)o2)cc1 | > 45.7 µM | 7.76 µM |  |
| COC1OC2COC1(OCc1ccccc1)C1OC(C)(C)OC21 (centres undefined) | > 200 µM | > 200 µM |  |
| CC1(C)OC2OC(C(O)COC(=O)c3ccccc3)C(Cl)C2O1 (centres undefined) | > 219 µM | 151 µM |  |
| O=C1C(=O)N(c2cccc(C(F)(F)F)c2)C(=O)C(=O)C1c1nc2ccccc2s1 | > 44.7 µM | > 44.7 µM |  |
| COc1ccc2c(c1)CCCN2CCCCCCCCCCN(CCC(C)C)CCC(C)C | > 77.6 µM | 9.55 µM |  |
| Cc1cc(C(c2cc(C)c(O)c(C(=O)O)c2)c2cc(C)c(O)c(C(=O)O)c2)cc(C(=O)O)c1O | > 269 µM | > 269 µM |  |
| COCC[P+](c1ccccc1)(c1ccccc1)c1ccccc1 | > 200 µM | 7.76 µM |  |
| O=[N+]([O-])c1ccc(-c2ccc(C3=Nn4c(nnc4-c4ccc(Cl)cc4)SC3)o2)cc1 | > 1.74 µM | > 1.74 µM |  |

| SMILES | EC50 | IC50 | outcome |
| --- | --- | --- | --- |
| COc1cccc(C2C(C(=O)Nc3cc(=O)n(C)c(=O)n3C)=C(C)NC(C)=C2C(=O)Nc2cc(=O)n(C)c(=O)n2C)c1O | > 219 µM | 74.1 µM |  |
| CCCOc1csc([C@H]2CCC3[C@@H]4CC=C5C[C@@H](O)CC[C@]5(C)C4CC[C@@]32C)n1 (some centres undefined) | > 12 µM | > 12 µM |  |
| O=C1CS(=O)(=O)C(c2ccccc2)N1N1C(=O)CS(=O)(=O)C1c1ccccc1 (centres undefined) | > 200 µM | > 200 µM |  |
| NS(=O)(=O)c1ccc(CNC(=O)c2ccccc2SC(=O)CCCC[n+]2ccccc2)cc1 | 1.38 µM and 0.759 µM | 28.2 µM and 11.7 µM |  |
| Cc1cccc2c(N)c3cccc(C(=O)NCC[N+](C)(C)Cc4ccc([N+](=O)[O-])s4)c3nc12 | > 2 µM | 0.251 µM |  |
| CN(C)c1ccc(C(Cc2ccccc2)C2NC(=S)NC2=O)cc1 (centres undefined) | > 200 µM | 15.5 µM |  |
| CCOC(=O)c1c(SCCO)n(-c2ccccc2)c(=S)n(-c2ccccc2)c1=O | > 200 µM | > 200 µM |  |
| C=C1OC(OC)CC(N)C1O (centres undefined) |  |  | inactive |
| CCOC(=O)c1c(NC(=O)c2ccccc2)sc2c1CCCC2 | > 151 µM | > 151 µM |  |
| O=c1cc(N=Nc2ccc(Cl)c(Cl)c2)[nH]c(=O)[nH]1 | > 2 µM | 1.55 µM |  |
| CC(=O)C(=Cc1ccc(F)cc1)C(C)=O | > 871 µM | 38 µM |  |
| Cc1cc2ccccc2n1CC(=O)NCC(C)C | > 200 µM | > 200 µM |  |
| N=C1OC(CN2CCN(c3ccccc3)CC2)CN1C(=S)Nc1ccccc1 (centres undefined) | > 200 µM | 141 µM |  |
| CCOC(=O)CNC(=O)C(C)NC(=O)C(NC(=O)OCc1ccccc1)C(C)C (stereo not drawn) (Cbz-Val-Ala-Gly-OEt; configuration not given here) | > 200 µM | 115 µM |  |
| Cc1ccc(CC[P+](=O)CCc2ccc(C)nc2)cn1 | > 200 µM | > 200 µM |  |
| C=CCc1ccccc1OP(=O)(Oc1ccc(C(C)(C)C)cc1)Oc1ccc(C(C)(C)C)cc1 |  |  | inactive |
| Cc1cc2c(cc1-c1cc3c(cc1C)C(C(C)C)=C(O)C(=O)/C3=C\Nc1c(C)n(C)n(-c3ccccc3)c1=O)/C(=C/Nc1c(C)n(C)n(-c3ccccc3)c1=O)C(=O)C(O)=C2C(C)C | > 200 µM | 34.7 µM |  |
| COc1ccc(-n2c(=O)[nH]n(C(C)=O)c2=O)cc1 | > 200 µM | > 200 µM |  |
| N#C/C(=C\NC(=S)Nc1ccc(S(=O)(=O)Nc2nccs2)cc1)C(=O)c1ccc2ccccc2c1 | > 200 µM | 36.3 µM |  |
